Reference: PMC9833666, “Designing and identifying β-hairpin peptide macrocycles with antibiotic potential” (Science Advances, 2023)
Bridge positions count the residues as written; N and C are the ends. Peptide text beside a SMILES is read from it.

Tested on: Escherichia coli W3110
Assay type: cell-based
Conditions: for Ec W3110 MIC MH: E. coli W3110, MH medium; for Ec W3110 MIC RPMI: E. coli W3110, RPMI medium

`CC[C@H](C)[C@@H]1NC(=O)[C@H](CCCNC(=N)N)NC(=O)[C@H](CC(C)C)NC(=O)[C@@H](N)CSSC[C@@H](C(=O)O)NC(=O)[C@H](C(C)C)NC(=O)[C@H](CCC(N)=O)NC(=O)[C@H](CC(C)C)NC(=O)[C@H](CO)NC(=O)[C@H](C(C)C)NC(=O)[C@H](CCCCN)NC(=O)[C@H](CC(C)C)NC(=O)CNC(=O)[C@H](CCCNC(=N)N)NC(=O)[C@H](CCCNC(=N)N)NC(=O)[C@H](CCCNC(=N)N)NC(=O)[C@H](CC(N)=O)NC(=O)[C@H](CC(N)=O)NC(=O)[C@H](CC(C)C)NC(=O)[C@H](CCCNC(=N)N)NC1=O` [SySA-30] (H-CLRIRLNNRRRGLKVSLQVC-OH; disulfide 1-20; N-terminus and C-terminus assumed) was tested, and the Ec W3110 MIC MH was 64 µg/mL, the Ec W3110 MIC RPMI was 8 µg/mL and the “W3110 MIC MH” value was 64 µg/mL. The “W3110 MIC RPMI” value was 8 µg/mL.

For `CC[C@H](C)[C@@H]1NC(=O)[C@H](CCCNC(=N)N)NC(=O)[C@H](CC(C)C)NC(=O)[C@H](CCCNC(=N)N)NC(=O)[C@H](CO)NC(=O)[C@H](CCCNC(=N)N)NC(=O)[C@H](CCCNC(=N)N)NC(=O)[C@H](CC(=O)O)NC(=O)[C@H](CC(N)=O)NC(=O)[C@H](CC(C)C)NC(=O)[C@H](CCCNC(=N)N)NC(=O)[C@H](C(C)C)NC(=O)[C@H]([C@@H](C)O)NC(=O)[C@H](C(C)C)NC(=O)[C@@H](N)CSSC[C@@H](C(=O)O)NC(=O)[C@H](C(C)C)NC(=O)[C@H](CCC(=O)O)NC(=O)[C@H](CC(C)C)NC(=O)[C@H]([C@@H](C)O)NC1=O` [SyRA-15] (H-CVTVRLNDRRSRLRITLEVC-OH; disulfide 1-20), the “W3110 MIC” value was >256 µg/mL.

For `CC[C@H](C)[C@@H]1NC(=O)[C@H](CC(N)=O)NC(=O)[C@H](C(C)C)NC(=O)[C@H](CCCCN)NC(=O)[C@H]([C@@H](C)CC)NC(=O)[C@H](CCCNC(=N)N)NC(=O)[C@@H](N)CSSC[C@@H](C(=O)O)NC(=O)[C@H](CCC(=O)O)NC(=O)[C@H](CC(C)C)NC(=O)[C@H](CCC(=O)O)NC(=O)[C@H](CC(C)C)NC(=O)[C@H](CCCCN)NC(=O)[C@H](C(C)C)NC(=O)[C@H]([C@@H](C)O)NC(=O)[C@H](CCCNC(=N)N)NC(=O)[C@H](CCCNC(=N)N)NC(=O)[C@H](CCCNC(=N)N)NC(=O)[C@H](CC(N)=O)NC(=O)[C@H](CC(N)=O)NC1=O` [SyRC-6] (H-CRIKVNINNRRRTVKLELEC-OH; disulfide 1-20), the “W3110 MIC” value was >256 µg/mL.

For `CC[C@H](C)[C@@H]1NC(=O)[C@H](CCCCN)NC(=O)[C@H](CC(C)C)NC(=O)CNC(=O)[C@H](CCCNC(=N)N)NC(=O)[C@H](CCCNC(=N)N)NC(=O)[C@H](CCCNC(=N)N)NC(=O)[C@H](CC(N)=O)NC(=O)[C@H](CC(N)=O)NC(=O)[C@H](CC(C)C)NC(=O)[C@H](CCCNC(=N)N)NC(=O)[C@H]([C@@H](C)CC)NC(=O)[C@H](CCCNC(=N)N)NC(=O)[C@H](C(C)C)NC(=O)[C@@H](N)CSSC[C@@H](C(=O)O)NC(=O)[C@H](C(C)C)NC(=O)[C@H](CCC(N)=O)NC(=O)[C@H](CC(C)C)NC(=O)[C@H](CO)NC1=O` [SySA-82] (H-CVRIRLNNRRRGLKISLQVC-OH; disulfide 1-20; N-terminus and C-terminus assumed), the Ec W3110 MIC MH was 64 µg/mL, the Ec W3110 MIC RPMI was 8 µg/mL and the “W3110 MIC MH” value was 64 µg/mL. The “W3110 MIC RPMI” value was 8 µg/mL.

For `CC[C@H](C)[C@@H]1NC(=O)[C@H](CCCNC(=N)N)NC(=O)[C@H](CC(C)C)NC(=O)CNC(=O)CNC(=O)CNC(=O)[C@H](CCCNC(=N)N)NC(=O)[C@H](CC(N)=O)NC(=O)[C@H](CC(N)=O)NC(=O)[C@H](CC(C)C)NC(=O)[C@H](CCCNC(=N)N)NC(=O)[C@H](C(C)C)NC(=O)[C@H](CCCNC(=N)N)NC(=O)[C@H](C(C)C)NC(=O)[C@@H](N)CSSC[C@@H](C(=O)O)NC(=O)[C@H](C(C)C)NC(=O)[C@H](CCC(N)=O)NC(=O)[C@H](CC(C)C)NC(=O)[C@H]([C@@H](C)O)NC1=O` [SySA-27] (H-CVRVRLNNRGGGLRITLQVC-OH; disulfide 1-20; N-terminus and C-terminus assumed), the Ec W3110 MIC MH was 256 µg/mL, the Ec W3110 MIC RPMI was 64 µg/mL and the “W3110 MIC MH” value was 256 µg/mL. The “W3110 MIC RPMI” value was 64 µg/mL.

For `CC[C@H](C)[C@@H]1NC(=O)[C@H](CCCNC(=N)N)NC(=O)[C@H](C(C)C)NC(=O)[C@H](CCCNC(=N)N)NC(=O)[C@H](CCCNC(=N)N)NC(=O)[C@H](CCCNC(=N)N)NC(=O)[C@H](CCCNC(=N)N)NC(=O)[C@H](CC(N)=O)NC(=O)[C@H](CC(N)=O)NC(=O)[C@H](C(C)C)NC(=O)[C@H](CCCNC(=N)N)NC(=O)[C@H](C(C)C)NC(=O)[C@H]([C@@H](C)O)NC(=O)[C@H](C(C)C)NC(=O)[C@@H](N)CSSC[C@@H](C(=O)O)NC(=O)[C@H](C(C)C)NC(=O)[C@H](CCC(N)=O)NC(=O)[C@H](C(C)C)NC(=O)[C@H](CO)NC1=O` [SySA-11] (H-CVTVRVNNRRRRVRISVQVC-OH; disulfide 1-20; N-terminus and C-terminus assumed), the Ec W3110 MIC MH was 64 µg/mL, the Ec W3110 MIC RPMI was 16 µg/mL and the “W3110 MIC MH” value was 64 µg/mL. The “W3110 MIC RPMI” value was 16 µg/mL.

For `CC[C@H](C)[C@@H]1NC(=O)[C@H](CCCNC(=N)N)NC(=O)[C@@H](N)CSSC[C@@H](C(=O)O)NC(=O)[C@H](CCC(N)=O)NC(=O)[C@H](C(C)C)NC(=O)[C@H](CCC(=O)O)NC(=O)[C@H](CC(C)C)NC(=O)[C@H](CCCNC(=N)N)NC(=O)[C@H](CC(C)C)NC(=O)[C@H](CCCNC(=N)N)NC(=O)[C@H](CCCNC(=N)N)NC(=O)CNC(=O)[C@H](CCCNC(=N)N)NC(=O)[C@H](CC(N)=O)NC(=O)[C@H](CC(N)=O)NC(=O)[C@H](C(C)C)NC(=O)[C@H](CC(N)=O)NC(=O)[C@H](C(C)C)NC(=O)[C@H](CCCCN)NC1=O` [SySA-4] (H-CRIKVNVNNRGRRLRLEVQC-OH; disulfide 1-20; N-terminus and C-terminus assumed), the Ec W3110 MIC MH was 256 µg/mL, the Ec W3110 MIC RPMI was 128 µg/mL and the “W3110 MIC RPMI” value was 128 µg/mL.

In the case of `CC[C@H](C)[C@@H]1NC(=O)[C@H](CCCNC(=N)N)NC(=O)[C@H](C(C)C)NC(=O)[C@@H](N)CSSC[C@@H](C(=O)O)NC(=O)[C@H](C(C)C)NC(=O)[C@H](CCC(N)=O)NC(=O)[C@H](CC(C)C)NC(=O)[C@H]([C@@H](C)O)NC(=O)[C@H](C(C)C)NC(=O)[C@H](CCCCN)NC(=O)[C@H](C(C)C)NC(=O)[C@H](CCCNC(=N)N)NC(=O)[C@H](CCCNC(=N)N)NC(=O)CNC(=O)CNC(=O)[C@H](CC(N)=O)NC(=O)[C@H](CC(N)=O)NC(=O)[C@H](CC(C)C)NC(=O)[C@H](CCCNC(=N)N)NC1=O` [SySA-53] (H-CVRIRLNNGGRRVKVTLQVC-OH; disulfide 1-20; N-terminus and C-terminus assumed), the Ec W3110 MIC MH is reported as 32 µg/mL, the Ec W3110 MIC RPMI is reported as 32 µg/mL and the “W3110 MIC MH” value is reported as 32 µg/mL. The “W3110 MIC RPMI” value was 32 µg/mL.

In the case of `CC[C@H](C)[C@@H]1NC(=O)[C@H](CCCCN)NC(=O)[C@H](CC(C)C)NC(=O)[C@H](CCCNC(=N)N)NC(=O)[C@H](CCCNC(=N)N)NC(=O)[C@H](CCCNC(=N)N)NC(=O)[C@H](CCCNC(=N)N)NC(=O)[C@H](CC(N)=O)NC(=O)[C@H](CC(N)=O)NC(=O)[C@H](CC(C)C)NC(=O)[C@H](CCCNC(=N)N)NC(=O)[C@H](C(C)C)NC(=O)[C@H](CCCNC(=N)N)NC(=O)[C@H](C(C)C)NC(=O)[C@@H](N)CSSC[C@@H](C(=O)O)NC(=O)[C@H](C(C)C)NC(=O)[C@H](CCC(=O)O)NC(=O)[C@H](CC(C)C)NC(=O)[C@H](CO)NC1=O` [SySA-78] (H-CVRVRLNNRRRRLKISLEVC-OH; disulfide 1-20; N-terminus and C-terminus assumed), the Ec W3110 MIC MH is reported as 32 µg/mL, the Ec W3110 MIC RPMI is reported as 16 µg/mL and the “W3110 MIC MH” value is reported as 32 µg/mL. For the same molecule, the “W3110 MIC RPMI” value was 16 µg/mL.

In the case of `CC[C@H](C)[C@@H]1NC(=O)[C@H](CCCNC(=N)N)NC(=O)[C@H](C(C)C)NC(=O)[C@@H](N)CSSC[C@@H](C(=O)O)NC(=O)[C@H](C(C)C)NC(=O)[C@H](CCC(N)=O)NC(=O)[C@H](CC(C)C)NC(=O)[C@H]([C@@H](C)O)NC(=O)[C@H](C(C)C)NC(=O)[C@H](CCCCN)NC(=O)[C@H](C(C)C)NC(=O)[C@H](CCCNC(=N)N)NC(=O)[C@H](CCCNC(=N)N)NC(=O)[C@H](CCCNC(=N)N)NC(=O)[C@H](CCCNC(=N)N)NC(=O)[C@H](CC(N)=O)NC(=O)[C@H](CC(N)=O)NC(=O)[C@H](CC(C)C)NC(=O)[C@H](CCCNC(=N)N)NC1=O` [SySA-80] (H-CVRIRLNNRRRRVKVTLQVC-OH; disulfide 1-20; N-terminus and C-terminus assumed), the Ec W3110 MIC MH is reported as 16 µg/mL, the Ec W3110 MIC RPMI is reported as 16 µg/mL and the “W3110 MIC MH” value is reported as 16 µg/mL. The “W3110 MIC RPMI” value was 16 µg/mL.

For `CC[C@H](C)[C@@H]1NC(=O)[C@H](CC(N)=O)NC(=O)[C@H]([C@@H](C)CC)NC(=O)[C@H](CCCNC(=N)N)NC(=O)[C@H](C(C)C)NC(=O)[C@H](CCCNC(=N)N)NC(=O)[C@@H](N)CSSC[C@@H](C(=O)O)NC(=O)[C@H](CCC(N)=O)NC(=O)[C@H](CC(C)C)NC(=O)[C@H](CCC(N)=O)NC(=O)[C@H](CC(C)C)NC(=O)[C@H](CCCCN)NC(=O)[C@H](C(C)C)NC(=O)[C@H](CCCNC(=N)N)NC(=O)[C@H](CCCNC(=N)N)NC(=O)[C@H](CCCNC(=N)N)NC(=O)CNC(=O)[C@H](CC(N)=O)NC(=O)[C@H](CC(N)=O)NC1=O` [SySA-7] (H-CRVRININNGRRRVKLQLQC-OH; disulfide 1-20; N-terminus and C-terminus assumed), the Ec W3110 MIC MH was 256 µg/mL, the Ec W3110 MIC RPMI was 32 µg/mL and the “W3110 MIC MH” value was 256 µg/mL. The “W3110 MIC RPMI” value was 32 µg/mL.

With `CC[C@H](C)[C@@H]1NC(=O)[C@H](CCCNC(=N)N)NC(=O)[C@H](CC(C)C)NC(=O)CNC(=O)[C@H](CCCNC(=N)N)NC(=O)[C@H](CCCNC(=N)N)NC(=O)[C@H](CCCNC(=N)N)NC(=O)[C@H](CC(N)=O)NC(=O)[C@H](CC(N)=O)NC(=O)[C@H](CC(C)C)NC(=O)[C@H](CCCNC(=N)N)NC(=O)[C@H]([C@@H](C)CC)NC(=O)[C@H](CCCNC(=N)N)NC(=O)[C@H](CC(C)C)NC(=O)[C@@H](N)CSSC[C@@H](C(=O)O)NC(=O)[C@H](C(C)C)NC(=O)[C@H](CCC(N)=O)NC(=O)[C@H](CC(C)C)NC(=O)[C@H](CO)NC1=O` [SySA-72] (H-CLRIRLNNRRRGLRISLQVC-OH; disulfide 1-20; N-terminus and C-terminus assumed) the Ec W3110 MIC MH was 32 µg/mL, the Ec W3110 MIC RPMI was 8 µg/mL and the “W3110 MIC MH” value was 32 µg/mL. For the same molecule, the “W3110 MIC RPMI” value was 8 µg/mL.
